Test results taken from US20250282746A1, “HALOGEN-SUBSTITUTED ISOINDOLINE COMPOUND AND USE THEREOF” (CHENGDU FENDI PHARMACEUTICAL CO., LTD., priority 2022, published 2025).
Like-named read-outs stand apart in the source and are kept apart here.

Key:
GSPT1 protein = target: T1, GSPT1 protein (Homo sapiens, UniProt P15170); assay: Degradation of GSPT1 protein in NB-4 cells (Western blot); type: cell-based; conditions: for inhibition at 1 µM: read-out: GSPT1 degradation
T1 construct: The whole cell lysate was prepared using a RIPA lysis buffer; endogenous in cells; host or cells: NB-4 cells
Method: 150 μL of DMSO and the compounds (1 μM) were added, and the mixture was incubated in an incubator at 5% CO2 and 37° C. for 6 h. The cells were centrifuged, and the culture medium was discarded. PBS was added for washing and then discarded. The whole cell lysate was prepared using a RIPA lysis buffer containing a protease inhibitor cocktail and a phosphatase inhibitor, and incubated on ice for 30 min. The mixture was centrifuged, and the cell debris was discarded. The whole cell lysate supernatant was collected and transferred to a fresh EP tube. Samples were prepared using a loading buffer after a BCA protein assay. The samples were incubated in a metal bath at 100° C. for 10 min.
The samples were electrophoretically separated from proteins on a 4-20% precast gel (SDS-PAGE gel), transferred to a PVDF membrane, blocked with 5% NFDM/TBST for 1 h at room temperature, co-incubated overnight at 4° C. with the primary antibody, and co-incubated for 2 h at room temperature with the secondary antibody on the next day. The signals were detected on the […]™ imaging system.

MV-4-11 cells = assay: Antiproliferative activity against MV-4-11 cells (CellTiter-Glo, 72 h); type: cell-based; conditions: Homo sapiens, read-out: Antiproliferative activity IC50
Method: MV411 cells in the logarithmic growth phase were diluted in a medium (RPMI+10% FBS) and plated at 5,000 cells/well in 96-well whole black plates (WHB) with 50 μL/well. After plating, the plates were incubated in an incubator at 5% CO2 and 37° C. for 24 h before the compounds were added. The compounds were prepared into a 10 mM stock solution in DMSO and diluted in a culture medium to the desired concentrations (a final DMSO concentration of 0.2%). […] The plates were incubated at 5% CO2 and 37° C. for 72 h. After the incubation was complete, the plates were equilibrated at room temperature for 30 min. CellTiter-Glo® Reagent (Promega G7573) was added at 100 μL/well. The plates were shaken for 12 min on a microplate shaker. The luminescence value was measured at room temperature by the GloMax navigator (Promega GM2010).

T1 sequence (P15170 whole entry): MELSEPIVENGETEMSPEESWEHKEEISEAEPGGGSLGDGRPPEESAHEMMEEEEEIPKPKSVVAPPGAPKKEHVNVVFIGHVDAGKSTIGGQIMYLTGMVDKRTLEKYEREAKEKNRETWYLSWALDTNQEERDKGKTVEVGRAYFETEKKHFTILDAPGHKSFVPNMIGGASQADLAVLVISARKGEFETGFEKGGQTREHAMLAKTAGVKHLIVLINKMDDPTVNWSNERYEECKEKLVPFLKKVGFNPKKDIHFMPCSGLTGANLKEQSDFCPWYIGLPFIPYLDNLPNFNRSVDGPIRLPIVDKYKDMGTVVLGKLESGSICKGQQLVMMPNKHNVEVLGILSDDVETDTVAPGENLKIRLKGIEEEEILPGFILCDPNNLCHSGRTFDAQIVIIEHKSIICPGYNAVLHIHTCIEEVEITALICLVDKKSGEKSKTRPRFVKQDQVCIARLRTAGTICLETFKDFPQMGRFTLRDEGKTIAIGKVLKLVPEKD

SMILES | inhibition at 1 µM (GSPT1 protein; NB-4 cells, compound 1 μM, 6 h) | IC50 (MV-4-11 cells; MV4-11, MV-4-11 cells, 72 h) | further results
O=C(Cc1cc2ccccc2s1)NCc1cc(F)cc2c1CN(C1CCC(=O)NC1=O)C2=O (centres unmarked) [FDAB-169] | 50 to 80% | 0.01 to 0.1 µM | 
O=C1CCC(N2Cc3c(ccc(CNC(=O)c4ccc5ccccc5n4)c3F)C2=O)C(=O)N1 (centres unmarked) [FDAB-66] | > 80% | 0.01 to 0.1 µM | 
CN(C)c1ccc(C(=O)NCc2ccc3c(c2F)CN(C2CCC(=O)NC2=O)C3=O)cc1 (centres unmarked) [FDAB-86] | > 80% | 0.001 to 0.01 µM | 
O=C1CCC(N2Cc3cc(CNC(=O)C4CC4)c(F)cc3C2=O)C(=O)N1 (centres unmarked) [FDAB-40] | < 25% | > 1 µM | 
O=C1CCC(N2Cc3cc(CNC(=O)c4ccc5ccccc5n4)c(F)cc3C2=O)C(=O)N1 (centres unmarked) [FDAB-60] | > 80% | 0.01 to 0.1 µM | 
CCCc1ccc(CNCc2ccc3c(c2F)CN(C2CCC(=O)NC2=O)C3=O)cc1 (centres unmarked) [FDAB-167] | > 80% | 0.001 to 0.01 µM | 
O=C1CCC(N2Cc3c(ccc(CNC(=O)c4ccc(F)cc4)c3Cl)C2=O)C(=O)N1 (centres unmarked) [FDAB-77] | < 25% | > 1 µM | 
CC(C)(C)OC(=O)NCc1ccc2c(c1F)CN(C1CCC(=O)NC1=O)C2=O (centres unmarked) [FDAB-2] | < 25% | > 1 µM | 
O=C1CCC(N2Cc3cc(CNC(=O)Nc4ccc(CCO)c(Cl)c4)ccc3C2=O)C(=O)N1 (centres unmarked) [FDAB-185] |  | 0.001 to 0.01 µM | 
O=C1CCC(N2Cc3cc(CNC(=O)c4cc5ccccc5o4)c(F)cc3C2=O)C(=O)N1 (centres unmarked) [FDAB-19] | > 80% | 0.001 to 0.01 µM | 
O=C1CCC(N2Cc3cc(CNC(=O)c4cc5cc(Cl)ccc5o4)c(F)cc3C2=O)C(=O)N1 (centres unmarked) [FDAB-20] | > 80% | 0.001 to 0.01 µM | 
NCCc1ccc(NC(=O)NCc2ccc3c(c2F)CN(C2CCC(=O)NC2=O)C3=O)cc1Cl (centres unmarked) [FDAB-182] |  | 0.001 to 0.01 µM | 
CC(C)OC(=O)N1C(=O)CCC(N2Cc3c(ccc(CNC(=O)c4ccc(Cl)cc4)c3F)C2=O)C1=O (centres unmarked) [FDAB-127] | < 25% | > 1 µM | 
O=C1CCC(N2Cc3c(ccc(CNCc4cc5cc(Cl)ccc5o4)c3F)C2=O)C(=O)N1 (centres unmarked) [FDAB-165] | > 80% | 0.001 to 0.01 µM | 
O=C1CCC(N2Cc3cc(CNC(=O)c4ccc(Cl)cn4)c(F)cc3C2=O)C(=O)N1 (centres unmarked) [FDAB-56] | < 25% | > 1 µM | 
COc1ccc(C(=O)NCc2ccc3c(c2F)CN(C2CCC(=O)NC2=O)C3=O)cc1 (centres unmarked) [FDAB-85] | > 80% | 0.01 to 0.1 µM | 
NCc1ccc2c(c1F)CN(C1CCC(=O)NC1=O)C2=O (centres unmarked) [FDAB-3] | < 25% | > 1 µM | 
O=C1CCC(N2Cc3cc(CNC(=O)c4ccccn4)c(F)cc3C2=O)C(=O)N1 (centres unmarked) [FDAB-29] | < 25% | > 1 µM | 
N#Cc1cc(F)c2c(c1)CN(C1CCC(=O)NC1=O)C2=O (centres unmarked) [FDAB-7] | < 25% | > 1 µM | 
O=C1CCC(N2Cc3cc(CNC(=O)c4cc5ccccc5[nH]4)c(F)cc3C2=O)C(=O)N1 (centres unmarked) [FDAB-24] | > 80% | 0.001 to 0.01 µM | 

SMILES | inhibition at 1 µM (GSPT1 protein; NB-4 cells, compound 1 μM, 6 h) | IC50 (MV-4-11 cells; MV4-11, MV-4-11 cells, 72 h) | further results
N#Cc1ccc(NCC(=O)NCc2ccc3c(c2F)CN(C2CCC(=O)NC2=O)C3=O)cc1 (centres unmarked) [FDAB-149] | < 25% | > 1 µM | 
O=C(CCOc1ccccc1)NCc1ccc2c(c1F)CN(C1CCC(=O)NC1=O)C2=O (centres unmarked) [FDAB-154] | > 80% | 0.001 to 0.01 µM | 
O=C(Cc1cccc(-c2ccccc2)c1)NCc1ccc2c(c1F)CN(C1CCC(=O)NC1=O)C2=O (centres unmarked) [FDAB-133] | > 80% | < 0.001 µM | 
O=C(COc1c(Cl)cc(Cl)cc1Cl)NCc1ccc2c(c1F)CN(C1CCC(=O)NC1=O)C2=O (centres unmarked) [FDAB-152] | > 80% | < 0.001 µM | 
O=C1CCC(N2Cc3cc(CNC(=O)c4ccc(Cl)c(F)c4)c(F)cc3C2=O)C(=O)N1 (centres unmarked) [FDAB-53] | > 80% | 0.01 to 0.1 µM | 
O=C1CCC(N2Cc3cc(CNC(=O)c4cccc(O)c4)c(F)cc3C2=O)C(=O)N1 (centres unmarked) [FDAB-36] | < 25% | > 1 µM | 
O=C1CCC(N2Cc3cc(CNC(=O)c4cc5cc(F)ccc5o4)c(Cl)cc3C2=O)C(=O)N1 (centres unmarked) [FDAB-73] | < 25% | > 1 µM | 
CC(C)OC(=O)OCN1C(=O)CCC(N2Cc3c(ccc(CNC(=O)c4ccc(Cl)cc4)c3F)C2=O)C1=O (centres unmarked) [FDAB-128] |  |  | inhibition at 1 µM (GSPT1 protein; NB-4, 6 h): 50 to 80%; IC50 (MV-4-11 cells; MV4-11, 72 h): 0.01 to 0.1 µM
O=C(C#Cc1ccc(Cl)cc1)NCc1ccc2c(c1F)CN(C1CCC(=O)NC1=O)C2=O (centres unmarked) [FDAB-145] | > 80% | < 0.001 µM | 
Cc1ccc(C(=O)NCc2cc3c(cc2F)C(=O)N(C2CCC(=O)NC2=O)C3)cc1 (centres unmarked) [FDAB-51] | > 80% | 0.01 to 0.1 µM | 
CC(C)c1ccc(C(=O)NCc2ccc3c(c2F)CN(C2CCC(=O)NC2=O)C3=O)cc1 (centres unmarked) [FDAB-93] | > 80% | < 0.001 µM | 
N#Cc1cc(C(=O)NCc2ccc3c(c2Cl)CN(C2CCC(=O)NC2=O)C3=O)ccc1Cl (centres unmarked) [FDAB-78] | < 25% | > 1 µM | 
CC(C)(C)c1ccc(C(=O)NCc2ccc3c(c2F)CN(C2CCC(=O)NC2=O)C3=O)cc1O (centres unmarked) [FDAB-173] |  | < 0.001 µM | 
CCCOc1ccc(/C=C/C(=O)NCc2ccc3c(c2F)CN(C2CCC(=O)NC2=O)C3=O)cc1 (centres unmarked) [FDAB-143] | > 80% | < 0.001 µM | 
O=C1CCC(N2Cc3cc(CNC(=O)c4ccncc4)c(F)cc3C2=O)C(=O)N1 (centres unmarked) [FDAB-31] | < 25% | > 1 µM | 
NCc1cc(F)cc2c1CN(C1CCC(=O)NC1=O)C2=O (centres unmarked) [FDAB-17] | < 25% | 0.1 to 1 µM | 
O=C1CCC(N2Cc3c(ccc(CNC(=O)c4cc5ccccc5o4)c3F)C2=O)C(=O)N1 (centres unmarked) [FDAB-45] | > 80% | 0.001 to 0.01 µM | 
O=C1CCC(N2Cc3cc(CNC(=O)C4CCCCC4)c(F)cc3C2=O)C(=O)N1 (centres unmarked) [FDAB-42] | < 25% | > 1 µM | 
Nc1ccc(-c2ccc(C(=O)NCc3ccc4c(c3F)CN(C3CCC(=O)NC3=O)C4=O)cc2)cc1 (centres unmarked) [FDAB-177] |  | < 0.001 µM | 
O=C1CCC(N2Cc3c(ccc(CNC(=O)c4ccc(CO)cc4)c3F)C2=O)C(=O)N1 (centres unmarked) [FDAB-108] | < 25% | > 1 µM | 

SMILES | inhibition at 1 µM (GSPT1 protein; NB-4 cells, compound 1 μM, 6 h) | IC50 (MV-4-11 cells; MV4-11, MV-4-11 cells, 72 h) | further results
Nc1ccc(-c2ccc(C#CC(=O)NCc3ccc4c(c3F)CN(C3CCC(=O)NC3=O)C4=O)cc2)cc1 (centres unmarked) [FDAB-184] |  | < 0.001 µM | 
O=C1CCC(N2Cc3c(ccc(CNC(=O)Nc4ccc(CCO)c(Cl)c4)c3F)C2=O)C(=O)N1 (centres unmarked) [FDAB-183] |  | < 0.001 µM | 
O=C1CCC(N2Cc3c(ccc(CNC(=O)C4(c5ccc(Br)cc5F)CC4)c3F)C2=O)C(=O)N1 (centres unmarked) [FDAB-141] | < 25% | > 1 µM | 
NCc1cc2c(cc1Cl)C(=O)N(C1CCC(=O)NC1=O)C2 (centres unmarked) [FDAB-15] | < 25% | > 1 µM | 
CCN1C(=O)CCC(N2Cc3c(ccc(CNC(=O)c4ccc(Cl)cc4)c3F)C2=O)C1=O (centres unmarked) [FDAB-125] | < 25% | > 1 µM | 
O=C(Cc1cc2ccccc2s1)NCc1ccc2c(c1F)CN(C1CCC(=O)NC1=O)C2=O (centres unmarked) [FDAB-136] | > 80% | 0.001 to 0.01 µM | 
N[C@@H](CC(=O)NCc1ccc2c(c1F)CN(C1CCC(=O)NC1=O)C2=O)C(c1ccccc1)c1ccccc1 (some centres unmarked) [FDAB-181] |  | 0.001 to 0.01 µM | 
CC(C)(C)c1ccc(C(=O)NCc2ccc3c(c2F)CN(C2CCC(=O)NC2=O)C3=O)c(N)c1 (centres unmarked) [FDAB-172] |  | < 0.001 µM | 
CC(C)(CN)c1ccc(C(=O)NCc2ccc3c(c2F)CN(C2CCC(=O)NC2=O)C3=O)cc1 (centres unmarked) [FDAB-174] |  | 0.01 to 0.1 µM | 
Nc1cc(-c2ccccc2)ccc1C(=O)NCc1ccc2c(c1F)CN(C1CCC(=O)NC1=O)C2=O (centres unmarked) [FDAB-176] |  | 0.001 to 0.01 µM | 
O=C1CCC(N2Cc3c(ccc(CNC(=O)c4ccc(OCc5ccccc5)c(O)c4)c3F)C2=O)C(=O)N1 (centres unmarked) [FDAB-179] |  | < 0.001 µM | 
NCc1ccc(-c2ccc(C(=O)NCc3ccc4c(c3F)CN(C3CCC(=O)NC3=O)C4=O)cc2)cc1 (centres unmarked) [FDAB-175] |  | < 0.001 µM | 
O=C(C#Cc1ccc(-c2ccc(O)cc2)cc1)NCc1ccc2c(c1F)CN(C1CCC(=O)NC1=O)C2=O (centres unmarked) [FDAB-186] |  | < 0.001 µM | 
CC(CCC(=O)NCc1ccc2c(c1F)CN(C1CCC(=O)NC1=O)C2=O)(c1ccc(O)cc1)c1ccc(O)cc1 (centres unmarked) [FDAB-180] |  | 0.01 to 0.1 µM | 
O=C1CCC(N2Cc3cc(CNC(=O)c4ccc(Cl)cn4)c(F)cc3C2=O)C(=O)N1 (centres unmarked) [FDAB-57] |  |  | GSPT1 degradation (GSPT1 protein; NB-4 cells, compound 1 μM, 6 h): D (D denotes a percentage of degradation less than 25%)
O=C(C#Cc1ccc(-c2ccc(CCO)cc2)cc1)NCc1ccc2c(c1F)CN(C1CCC(=O)NC1=O)C2=O (centres unmarked) [FDAB-187] |  | < 0.001 µM | 
NCCc1ccc(-c2ccc(C#CC(=O)NCc3ccc4c(c3F)CN(C3CCC(=O)NC3=O)C4=O)cc2)cc1 (centres unmarked) [FDAB-188] |  | 0.001 to 0.01 µM | 
COc1cc(C(=O)NCc2ccc3c(c2F)CN(C2CCC(=O)NC2=O)C3=O)c(N)cc1OCc1ccccc1 (centres unmarked) [FDAB-178] |  | < 0.001 µM | 
